Reference: ChEMBL document CHEMBL5236595, “JDQ443, a Structurally Novel, Pyrazole-Based, Covalent Inhibitor of KRASG12C for the Treatment of Solid Tumors” (J Med Chem, 2022)
Converted amounts (≈) assume the structure as drawn.

What was measured:
[1] = test system: GTPase KRas (Homo sapiens), P01116 [G12C]; assay: In vivo target occupancy at KRAS G12C mutant in human MIA PaCa-2 cells xenografted mouse assessed as decrease in […] expression at 30 mg/kg, po after 24 hrs; format: functional, organism-based
[2] = test system: GTPase KRas (Homo sapiens), P01116 [G12C]; assay: Displacement of [acrylamide-2,3-3H2]-N-(3-fluoro-4-(2-methyl-3-(5-methyl-1H- indazole-4-yl)-1H-pyrrolo[ 2,3-b]pyridin-1-yl)-phenyl from KRAS G12C mutant (unknown origin) assessed as ratio of Kinact/Ki by competitive scintillation proximity assay
[3] = AUC in human MIA PaCa-2 cells xenografted mouse at 30 mg/kg, po; format: ADME, organism-based; set-up: dose 30 mg/kg, route po; conditions: in vivo
[4] = test system: GTPase KRas (Homo sapiens), P01116 [G12C]; assay: In vivo target occupancy at KRAS G12C mutant in human MIA PaCa-2 cells xenografted mouse assessed as decrease in […] expression at 30 mg/kg, po after 6 hrs; format: functional, organism-based
[5] = test system: GTPase KRas (Homo sapiens), P01116 [G12C]; assay: In vivo target occupancy at KRAS G12C mutant in human MIA PaCa-2 cells xenografted mouse assessed as decrease in free KRAS G12C level at 30 mg/kg, po after 24 hrs; format: functional, organism-based
[6] = Aqueous solubility of compound in pH 6.8; format: physicochemical; conditions: aqueous medium
[7] = test system: GTPase KRas (Homo sapiens), P01116 [G12C]; assay: In vivo target occupancy at KRAS G12C mutant in human MIA PaCa-2 cells xenografted mouse assessed as decrease in free KRAS G12C level at 30 mg/kg, po after 6 hrs; format: functional, organism-based
[8] = Cmax in human MIA PaCa-2 cells xenografted mouse at 30 mg/kg, po; format: ADME, organism-based; set-up: dose 30 mg/kg, route po; conditions: in vivo
[9] = Lipophilicity, logD of compound at pH 7.4; format: physicochemical; conditions: buffer
GTPase KRas = GTPase KRas (Homo sapiens, UniProt P01116, G12C); assay: Inhibition of KRAS G12C mutant in human NCI-H358 cells assessed as reduction in ERK phosphorylation incubated for 6 hrs by MSD assay; format: cell-based
[10] = Apparent permeability across apical to basolateral side in MDCK-MDR1 cells at 10 uM after 2 hrs by LC-MS/MS analysis; format: ADME, cell-based, Canis lupus familiaris; conditions: dog
[11] = Aqueous solubility of compound in pH 4; format: physicochemical; conditions: aqueous medium
[12] = Cysteine reactivity in pH 7.4 phosphate buffer assessed as compound half life at 2 uM in presence of GSH

Row | Structure (SMILES) | Ratio [2] [mM⁻¹ s⁻¹] | logD [9] | IC50 (GTPase KRas) [nM] | Papp A→B at 2 h, 10 µM [10] [×10⁻⁶ cm/s] | also measured
1 | C=CC(=O)N1CC2(CC(n3nc(-c4ccc5nn(CCOC)cc5c4)c(-c4c(Cl)c(C)cc5[nH]ncc45)c3C)C2)C1 | 225 | 4.2 | 4 | 5.4 | Occ [1]: 59%; AUC [3]: 7.3 µM·h; Occ [4]: 45%; Occ [5]: 78%; solubility [6]: 30 µM (≈ 17.1 µg/mL); Occ [7]: 37%; Cmax [8]: 4300 nM
2 | C=CC(=O)N1CC2(CC(n3nc(-c4ccc5c(cnn5CCN(C)C)c4)c(-c4c(Cl)c(C)cc5[nH]ncc45)c3C)C2)C1 | 150 | 3.7 | 30 | 0.9 | AUC [3]: 0.5 µM·h; solubility [11]: 850 µM (≈ 496 µg/mL); Cmax [8]: 300 nM
3 | C=CC(=O)N1CC2(CC(n3nc(C4CCCCC4)c(-c4c(Cl)ccc5[nH]ncc45)c3C)C2)C1 | 0.9 |  | 700 |  | 
4 | C=CC(=O)N1CC2(CC(n3nc(-c4ccc5c(c4)ncn5C)c(-c4c(Cl)c(C)cc5[nH]ncc45)c3C)C2)C1 | 24 | 3.9 | 140 | 3.8 | solubility [6]: 40 µM (≈ 21 µg/mL)
5 | C=CC(=O)N1CC2(CC(n3nc(-c4cccnc4)c(-c4c(Cl)c(C)cc5[nH]ncc45)c3C(F)F)C2)C1 | 3 |  |  |  | 
6 | C=CC(=O)Nc1ccc(-n2nc(C(C)C)c(-c3c(C)ccc4[nH]ncc34)c2C)c(F)c1 | 6 |  | 500 |  | T1/2 [12]: 20 min
7 | C=CC(=O)N1CC2(CC(n3nc(-c4cccnc4)c(-c4c(Cl)c(C)cc5[nH]ncc45)c3CC#N)C2)C1 | 0.2 |  |  |  | 
8 | C=CC(=O)N1CC2(CC(n3nc(-c4ccccn4)c(-c4c(Cl)c(C)cc5[nH]ncc45)c3C)C2)C1 | 7 |  |  |  | 
9 | C=CC(=O)N1CC2(CC(n3nc(-c4ccc5nnccc5c4)c(-c4c(Cl)c(C)cc5[nH]ncc45)c3C)C2)C1 | 25 | 4.1 |  | 6.1 | solubility [6]: 10 µM (≈ 5.24 µg/mL)
10 | C=CC(=O)N1CC2(CC(n3nc(-c4cccnc4)c(-c4c(Cl)c(C)cc5[nH]ncc45)c3C)C2)C1 | 10 |  | 90 |  | 
11 | C=CC(=O)N1CC2(CC(n3nc(C4CCCCC4)c(-c4c(C)ccc5[nH]ncc45)c3C)C2)C1 | 0.3 |  |  |  | 
12 | C=CC(=O)N1CC2(CC(n3nc(-c4cccnc4)c(-c4c(Cl)ccc5[nH]ncc45)c3C)C2)C1 | 1.3 |  | 500 |  | 
